# Laboratory results: PMC11152574, “A parameterized two-domain thermodynamic model explains diverse mutational effects on protein allostery” (eLife, 2024)
# Target: TetR(B) (Escherichia coli, UniProt P04483)
# Assay: GFP reporter induction in E. coli, Bayesian fit of two-domain thermodynamic model
# Format: cell-based
# Conditions: 37 °C; LB culture; apparent Kd inferred from in vivo induction curve, K of active LBD set to 1 nM; order-of-magnitude model estimate, not a direct binding measurement; unreliable
# Procedure: GFP reporter induction in E. coli, Bayesian fit of two-domain thermodynamic model on TetR(B) | apparent dissociation constant of WT TetR to ligand is calculated as […]
# TetR(B), sequence (P04483 whole entry, looked up): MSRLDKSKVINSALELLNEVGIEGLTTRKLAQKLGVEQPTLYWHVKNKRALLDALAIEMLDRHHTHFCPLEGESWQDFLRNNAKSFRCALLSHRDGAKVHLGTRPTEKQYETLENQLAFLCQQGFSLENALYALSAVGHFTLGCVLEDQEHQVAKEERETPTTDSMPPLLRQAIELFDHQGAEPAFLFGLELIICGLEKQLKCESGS
smiles,measurement,value
Cc1c2c(c(O)c3c(O)cccc13)C(=O)[C@]1(O)C(=O)C(C(N)=O)=C(O)[C@@H](N(C)C)[C@@H]1C2 [anhydrotetracycline],K apparent WT,27.1 nM
